For the assay, the system named is Sprague Dawley rats. In words: Coronary artery ligation model, Tpo given after the onset of ischemia. In kind it is in vivo, rat. The following applies: Tpo 0.05 μg/kg 15 min prior to reperfusion (15 min after onset of 30 min regional ischemia). On the procedure:
FIG. 9 is a graphic depiction of the effect of Tpo (0.05 μg/kg) on myocardial infarct size in vivo (as percentage % of area at risk) when administered intravenously 15 minutes after the onset of 30 minutes regional myocardial ischemia in vivo induced by suture ligation of the left main coronary artery and 3 hours reperfusion. *=P<0.05, with Tpo vs. without Tpo (control).
Animals used in this study were adult male Sprague Dawley rats (200-350 g, generally 300 g). Animals were housed under standard conditions and allowed to feed ad lib. The Animal Care and Use Committee of the Medical College of Wisconsin approved all procedures performed in accordance with the regulations adopted by the National Institutes of Health.
A myocardial infarction was produced via the ligation of the left main artery using 6-0 prolene suture (See, e.g., Clements-Jewery, et al., supra, 2002; Farkas, et al., supra, 2002). Rats were anesthetized with sodium pentobarbital (50 mg/kg i.p.). The left main coronary artery was identified and ligated with a 5-0 Prolene suture threaded through a polyethylene tube to act as an occluder. […]
The heart was sectioned in 2 mm segments from apex to atrio-ventricular groove in a transverse fashion. Each segment was recorded and placed in formalin. […] The percentage of infarction of each slide was expressed as a percentage of the entire area of the heart.

Regarding Thrombopoietin [Tpo], the Myocardial infarct size entry is “decrease”.

The values are drawn from patent US8518883B2, “Method of reducing deleterious effects of ischemia by administration of a thrombopoietin receptor ligand” (MCW Research Foundation, Inc., priority 2006, dated 2013).
